# pEC50, pIC50: −log10 of the molar value. Read-outs that look alike come from different tables or passages of the source.
# Tests used:
# [1] = system: Biolaser-induced thrombosis / platelet aggregation in rabbit ear; assay: in vivo inhibition of biolaser-induced platelet aggregation in the rabbit ear (Biolaser Model); parameters: species or system rabbit (English, half-lop); settings: for inhibition in vivo at 0.1 mg/kg: Oryctolagus cuniculus, Platelet, po, 0.1 mg/kg orally, 2 hours
# Experimental: Transparent ear chambers were chronically implanted in adult, English, half-lop rabbits. The animals were conditioned to lie quietly in a supine position. Localized microvascular injury was induced by focusing a single pulse ruby laser beam through a microscope into the lumen of a vessel […] in diameter. This evoked the formation of a small thrombus consisting of platelets accumulated around a core of one or two damaged red cells. Thrombi areas were determined using computerized planimetry. The mean thrombus area (μM^2) obtained for 10 trials in each rabbit served as the control value. Subsequently, the test compound was administered orally and 2 hours later a second series of laser-induced thrombi trials were performed. Drug activity was evaluated by comparing pre-and post-dose mean thrombus areas. Activity determined at other time points beyond 2 hours establish duration of action.
# solubility = format: physicochemical
# [2] = target: T1, cyclic AMP phosphodiesterase (PDE) enzyme obtained from human platelets (Homo sapiens, UniProt Q14432); assay: inhibition of cyclic AMP phosphodiesterase; format: biochemical; settings: human platelet PDE
# T1 construct: phosphodiesterase (PDE) enzyme obtained from human platelets; from tissue; host or cells: human platelets
# T1 sequence (Q14432 whole entry): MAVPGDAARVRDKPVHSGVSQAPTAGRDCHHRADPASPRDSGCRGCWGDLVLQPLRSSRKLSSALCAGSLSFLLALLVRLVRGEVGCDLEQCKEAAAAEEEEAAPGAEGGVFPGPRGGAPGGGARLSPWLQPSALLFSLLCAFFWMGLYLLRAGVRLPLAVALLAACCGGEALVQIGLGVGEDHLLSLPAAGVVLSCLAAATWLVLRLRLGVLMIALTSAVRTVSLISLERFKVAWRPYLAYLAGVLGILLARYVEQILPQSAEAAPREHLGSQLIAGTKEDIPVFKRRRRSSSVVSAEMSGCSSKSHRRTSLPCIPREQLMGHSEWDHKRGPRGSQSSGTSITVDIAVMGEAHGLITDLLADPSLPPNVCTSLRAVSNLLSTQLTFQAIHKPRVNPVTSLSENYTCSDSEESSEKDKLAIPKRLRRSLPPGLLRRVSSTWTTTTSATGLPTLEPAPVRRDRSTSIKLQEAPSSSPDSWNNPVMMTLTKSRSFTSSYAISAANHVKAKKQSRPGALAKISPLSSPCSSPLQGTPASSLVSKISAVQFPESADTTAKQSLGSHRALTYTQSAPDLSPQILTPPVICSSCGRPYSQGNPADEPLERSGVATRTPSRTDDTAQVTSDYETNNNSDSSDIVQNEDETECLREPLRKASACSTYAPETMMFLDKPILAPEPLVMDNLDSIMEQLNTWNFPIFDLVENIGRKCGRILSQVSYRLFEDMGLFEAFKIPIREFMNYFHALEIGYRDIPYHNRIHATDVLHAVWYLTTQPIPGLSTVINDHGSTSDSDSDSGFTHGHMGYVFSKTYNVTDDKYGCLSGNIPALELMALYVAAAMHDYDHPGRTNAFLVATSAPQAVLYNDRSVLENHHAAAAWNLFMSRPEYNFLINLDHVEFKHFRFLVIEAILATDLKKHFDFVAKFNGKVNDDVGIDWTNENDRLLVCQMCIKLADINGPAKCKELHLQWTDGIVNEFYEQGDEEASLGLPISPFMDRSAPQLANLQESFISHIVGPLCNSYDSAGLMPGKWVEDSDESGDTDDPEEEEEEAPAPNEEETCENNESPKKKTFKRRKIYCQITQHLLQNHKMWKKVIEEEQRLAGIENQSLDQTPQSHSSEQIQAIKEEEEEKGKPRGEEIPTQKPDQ
# Experimental: This assay is carried out essentially as described by Thompson, et al., Methods in Enzymology, 38, […] (1974). Briefly, tritium labeled cyclic adenosine monophosphate (cAMP) is incubated with a phosphodiesterase (PDE) enzyme obtained from human platelets which converts a portion of the cAMP to 5'AMP in culture tubes. This reaction is terminated by submerging the tubes in a boiling water bath after which they are placed on ice and an aliquot of snake venom is added to each tube. This, during a second incubation, converts the 5'AMP to adenosine. Ion exchange resin is added to bind the remaining cyclic AMP. The tubes are centrifuged to sediment the resin and a portion of the clear supernatent (which contains radioactive adenosine) is counted in a liquid scintillation counter. The cAMP phosphodiesterase inhibition activity of a test agent is determined by pre-incubating the PDE enzyme preparation with the test agent. Dose response values are obtained and activity of the test agent reported as the molar (M) concentration of the test agent inhibition 50% of the PDE activity (IC50 s).
# ferrets = assay: in vivo inotropic activity in anesthetized ferrets (hemodynamic parameters and right ventricular contractile force); parameters: species or system ferret; settings: for change in vivo at 3 mg/kg: Mustela putorius, intraduodenal, 1 h, 3 mg/kg intraduodenally, monitored 60 minutes
# Experimental: This test is […] out in ferrets as follows. Fasted anesthetized ferrets are instrumented to study hemodynamic parameters as well as right ventricular contractile force (RVCF) using a Walton-Brodie open strain gauge arch. Drugs are administered intraduodenally as solutions in DMSO (1 mL or less) and effects on myocardial contractile force and other parameters are monitored for 60 minutes after dosing. Changes in contractile force in response to drug treatment are expressed in terms of percent change from predose control.
# [3] = system: ADP-induced platelet aggregation; assay: in vitro inhibition of ADP-induced platelet aggregation (aggregometer method of Born, platelet rich plasma); format: cell-based; settings: human platelet rich plasma; ADP 2.5 mcg/ml; as the dihydrochloride salt; read-out: EC50 versus ADP (inhibition of ADP-induced platelet aggregation)
# Experimental: The aggregometer method of Born^1, as modified by Mustard, et al.^2 was used to assess the in vitro activity of the various compounds as to inhibition of adenosine diphosphate (ADP) and collagen-induced platelet aggregation. Platelet rich plasma (PRP) was separated by centrifugation from citrated (3.8 percent) human blood. ADP in final concentration of 2.5 mcg/ml or 0.05 ml of a collagen suspension prepared according to the method described by Evans, et al.^3 was used to induce aggregation. The various Evans, et al. compounds tested were dissolved in dimethylsulfoxide (DMSO) so that 5 mcl added to the platelet rich plasma would yield the desired test concentration. Vehicle control trials were done and compared with aggregation induced in platelet rich plasma containing various concentrations of the test compounds. Dose response curves were thus obtained and Effective Concentration (EC50) values calculated.
# [4] = Table I, read-out: cAMP PDE IC50 (m)
# [5] = change from predose control, read-out: Ferret, Maximum % Change, VCF (ventricular contractile force)
# [6] = read-out: Ferret, Maximum % Change, HR (heart rate)
# [7] = read-out: Ferret, Maximum % Change, MAP (mean arterial blood pressure)
compound,measurement,setting,value
"O=C(CCCOc1ccc2nc3[nH]c(=O)[nH]c3cc2c1)N1CCN(c2ccccc2)CC1 [1-[4-[(2,3-dihydro-2-oxo-1H-imidazo[4,5-b]-quinolin-7-yl)oxy]-1-oxobutyl]-4-phenylpiperazine, reference compound]",activity in Biolaser Model relative to Table I compounds,"[1]; 0.3 mg/kg body weight, compared with Table I compounds",markedly less active than Table I compounds
same,inhibition in Biolaser Model,"[1]; 0.3 mg/kg body weight, rabbit",22%
same,solubility,"solubility; 2.0n hcl, read-out: solubility in 2.0N HCl",< 10 µg/mL
same,solubility,"solubility; water, read-out: solubility in water",< 10 µg/mL
O=C(CCCOc1ccc2nc3[nH]c(=O)[nH]c3cc2c1)N1CCN(Cc2ccccc2)CC1 [Example 11],pIC50,[2]; [4],9.15
same,change in vivo at 3 mg/kg,ferrets; [5],28%
same,change in vivo at 3 mg/kg,ferrets; [6],31%
same,change in vivo at 3 mg/kg,ferrets; [7],-42%
same,inhibition in vivo at 0.1 mg/kg,[1]; rabbit,50%
O=C(CCCOc1ccc2nc3[nH]c(=O)[nH]c3cc2c1)N1CCN(Cc2ccc(F)cc2)CC1 [Example 13],pIC50,[2]; [4],8.70
same,change in vivo at 3 mg/kg,ferrets; [5],32%
same,change in vivo at 3 mg/kg,ferrets; [6],21%
same,change in vivo at 3 mg/kg,ferrets; [7],-11%
same,inhibition in vivo at 0.1 mg/kg,[1]; rabbit,46%
"O=C(CCCOc1ccc2nc3[nH]c(=O)[nH]c3cc2c1)N1CCN(Cc2cccc(C(F)(F)F)c2)CC1 [Example 14, 1-[4-(2,3-Dihydro-2-oxo-1H-imidazo[4,5-b]quinolin-7-(yloxy)-1-oxobutyl]-4-[[3-trifluormethyl)phenyl-]methyl]piperazine]",pIC50,[2]; [4],8.05
same,change in vivo at 3 mg/kg,ferrets; [5],3%
same,change in vivo at 3 mg/kg,ferrets; [6],12%
same,change in vivo at 3 mg/kg,ferrets; [7],-16%
same,inhibition in vivo at 0.1 mg/kg,[1]; rabbit,49%
COc1ccc(CN2CCN(C(=O)CCCOc3ccc4nc5[nH]c(=O)[nH]c5cc4c3)CC2)cc1 [Example 15],pIC50,[2]; [4],8.52
same,change in vivo at 3 mg/kg,ferrets; [5],24%
same,change in vivo at 3 mg/kg,ferrets; [6],17%
same,change in vivo at 3 mg/kg,ferrets; [7],-23%
same,inhibition in vivo at 0.1 mg/kg,[1]; rabbit,48%
"O=C(CCCOc1ccc2nc3[nH]c(=O)[nH]c3cc2c1)N1CCN(Cc2cccs2)CC1 [Example 16, 1-[4-(2,3-Dihydro-2-oxo-1H-imidazo[4,5-b]quinolin-7-yloxy)-1-oxobutyl]-4-(2-thienylmethyl)piperazine]",pIC50,[2]; [4],9.15
same,change in vivo at 3 mg/kg,ferrets; [5],30%
same,change in vivo at 3 mg/kg,ferrets; [6],16%
same,change in vivo at 3 mg/kg,ferrets; [7],-27%
same,inhibition in vivo at 0.1 mg/kg,[1]; rabbit,49%
O=C(CCCOc1ccc2nc3[nH]c(=O)[nH]c3cc2c1)N1CCN(c2ccccn2)CC1 [Example 19],pIC50,[2]; [4],8.30
same,change in vivo at 3 mg/kg,ferrets; [5],-8%
same,change in vivo at 3 mg/kg,ferrets; [6],12%
same,change in vivo at 3 mg/kg,ferrets; [7],-15%
same,inhibition in vivo at 0.1 mg/kg,[1]; rabbit,47%
"O=C(CCCOc1ccc2nc3[nH]c(=O)[nH]c3cc2c1)N1CCN(CC2CCCCC2)CC1 [Example 22, 1-(Cyclohexylmethyl)-4-[4-(2,3-dihydro-2-oxo-1H-imidazo[4,5-b]quinolin-7-yloxy)-1-oxybutyl]piperazine]",pEC50,[3],6.04
same,pIC50,"[2]; read-out: IC50, cAMP phosphodiesterase inhibition",9.40
same,change in vivo at 3 mg/kg,ferrets; [5],27%
same,change in vivo at 3 mg/kg,ferrets; [6],29%
same,change in vivo at 3 mg/kg,ferrets; [7],-15%
same,inhibition in vivo at 0.1 mg/kg,[1]; rabbit,59%
"O=C(CCCOc1ccc2nc3[nH]c(=O)[nH]c3cc2c1)N1CCN(C2CCCCCC2)CC1 [Example 25, 1-Cycloheptanyl-4-[4-(2,3-dihydro-2-oxo-1H-imidazo[4,5-b]quinolin-7-yloxy)-1-oxobutyl]piperazine]",pIC50,[2]; [4],9.05
same,change in vivo at 3 mg/kg,ferrets; [5],26%
same,change in vivo at 3 mg/kg,ferrets; [6],17%
same,change in vivo at 3 mg/kg,ferrets; [7],-12%
same,inhibition in vivo at 0.1 mg/kg,[1]; rabbit,49%
"Cc1[nH]c(=O)c(C#N)cc1-c1ccncc1 [milrinone, reference compound]",increase in RVCF (right ventricular contractile force),"ferrets; 3 mg/kg, ferret",52%
